This is an account of results in publication PMC10584003 (The Journal of Clinical Endocrinology and Metabolism, 2023).

Entries after “also recorded” stand apart in the source; their conditions may differ.

Test [1] relates to 26 WT-like GLP-1R variants. In words: cAMP measurement. It is filed as cell-based, human. The conditions noted are these: COS-7 cells.
Test [2] deals with GLP-1R variants S79L, W87R, R310W, R421W, and A449V. The experiment in a line: Homologous competition binding, 5 LoS variants with maintained binding. Also noted: species or system human. The following applies: COS-7 cells.
Another test relates to GLP-1R R421C. The following applies: naturally occurring variant R421C; agonist not given; ref [42]; cited from earlier work.
Test [3] deals with GLP-1R, alanine at position 353. The conditions noted are these: alanine mutation at position 353; ref [46]; cited from earlier work.
The subject of test [4] is GLP-1R, alanine at position 155. The conditions noted are these: ref [46]; cited from earlier work.
For test [5], the system named is GLP-1R variants E34*, H99Qfs*83, S155F, F169Sfs*13, and T353M. In words: Homologous competition binding, 5 LoS variants without binding. Also noted: species or system human. The conditions noted are these: COS-7 cells, 125I-GLP-1(7-36)NH2, LoS variants E34*, F169Sfs*13, T353M.
In test [6] the test system is GLP-1R P7L, R131Q, G168S, and A316T. In words: GLP-1R signaling, variants P7L, R131Q, G168S, A316T. In kind it is cell-based, human. The conditions noted are these: present study, COS-7 and HEK-293 cells.
Another test concerns GLP-1R F321S and F66L. In words: cAMP signaling, variants F66L and F321S. It is filed as cell-based, human. The following applies: COS-7 cells, predicted pLoF.
In test [7] the test system is GLP-1R, alanine at position 87. The following applies: ref [44]; cited from earlier work.
Test [8] relates to GLP-1R A316T. The conditions noted are these: A316T variant; agonist not given; ref [49]; cited from earlier work.
The subject of test [9] is 26 WT-like GLP-1R variants. In words: β-arrestin 2 recruitment. In kind it is cell-based, human. The following applies: HEK293 cells, BRET with GRK6, 26 WT-like variants. For orientation: Activated receptors often draw arrestin, which recruitment assays turn into a signal.
The subject of test [10] is GLP-1R variants E34*, W87R, H99Qfs*83, S155F, F169Sfs*13, R310W, and T353M. The experiment in a line: β-arrestin 2 recruitment. It is filed as cell-based, human. The conditions noted are these: HEK293 cells, BRET with GRK6, LoS variants E34*.
Test [11] deals with GLP-1R, alanine at position 155. The following applies: ref [46]; cited from earlier work. This is another data set of the same source.
Test [12] deals with GLP-1R A316T. The conditions noted are these: A316T variant; agonist not given; ref [49]; cited from earlier work. This is another data set of the same source.
In another test the test system is GLP-1R R310W. The following applies: top of transmembrane helix 5, agonist not given, ref [45]; cited from earlier work.
Test [13] has as its system GLP-1R variants S79L, R421W, and A449V. In words: β-arrestin 2 recruitment. It is filed as cell-based, human. The conditions noted are these: HEK293 cells, BRET with GRK6, LoS variants S79L.
For test [14], the system named is GLP-1R, alanine at position 87. The following applies: ref [44]; cited from earlier work. The source holds these as a separate data set.

Consider glucagon-like peptide 1 [GLP-1], for which the “change in cAMP potency vs WT (WT-like criterion)” value in test [1] (26 WT-like variants, EC50 change vs WT) is reported as under 5 fold. The “cAMP Emax (WT-like criterion)” value in [1] (26 WT-like variants, Emax of at least 50% of the WT Emax) is “at least 50 % of the WT Emax”. Further, in [1] (26 variants, compared to WT), the “cAMP production, result in words” value was “cAMP production similar to WT GLP-1R”. Further, the “GLP-1 binding, result in words” value in test [2] is reported as “maintained GLP-1 binding”. The “cAMP signaling, R421C, result in words” value in the test with GLP-1R R421C was “no effect on cAMP signaling”. For the same substance, the “cAMP production, alanine at position 353, result in words” value in test [3] is “altered cAMP production”. Further, in test [4], the “GLP-1 affinity, alanine at position 155, result in words” value is “affected cAMP production and GLP-1 affinity”. In test [5], the “receptor binding, result in words” value is “complete loss of binding; also recorded: no GLP-1 binding”. Also, the “GLP-1R signaling, result in words” value in test [6] was “WT-like GLP-1R signaling”. The “cAMP signaling, result in words” value in the test with GLP-1R F321S and F66L is given as “normal cAMP signaling”. Besides, the “cAMP signaling, alanine at position 87, result in words” value in test [7] is “no altered GLP-1 binding or cAMP signaling”. For the same substance, the “signaling and binding, A316T, result in words” value in the test with GLP-1R A316T [8] is “WT-like signaling and binding properties”. Further, the figures for the “β-arrestin 2 recruitment, result in words” value in test [9], in test [10] and in test [13] were “WT-like β-arrestin 2 recruitment”, “completely lost β-arrestin 2 recruitment” and “maintained β-arrestin 2 recruitment”, respectively. Besides, in [9] (average, ± 6.6% (SEM)), the “β-arrestin 2 recruitment average Emax” value was 90.2 % of WT. For the same substance, the “cAMP production, alanine at position 155, result in words” value in [11] was “affected cAMP production”. In addition, the “β-arrestin recruitment, A316T” value with GLP-1R A316T [12] was 18 % of WT. In addition, the “efficacy, R310W, result in words” value in the test on GLP-1R R310W is recorded as “reduce efficacy”. The “GLP-1 binding, alanine at position 87, result in words” value in test [14] is reported as “no altered GLP-1 binding”.
